Assay results reported in patent US20240252463A1, “METHODS OF TREATING FIBROTIC PATHOLOGIES” (Mayo Foundation for Medical Education and Research, priority 2018, published 2024).
Counter-ions that a name gives are not always drawn. Like-named read-outs stand apart in the source and are kept apart here.

How the values were obtained:
YAP/TAZ = YAP/TAZ nuclear localization (immunofluorescence, automated imaging) in IPF patient-derived lung fibroblasts; assay type: cell-based, human
Protocol: 27A. […] IPF patient-derived lung fibroblasts cells treated 2 hours prior to fixation with diverse dopaminergic agonists (10 μM). N=4 different patient samples. % nuclear localization of YAP/TAZ was determined using automated imaging software. Scale bar represents 100 μm. 27C. cAMP measured in IPF patient-derived fibroblasts treated for 20 minutes with DHX. N=3. 27E.
(§1) ImmunofluorescenceMicroscopy: Cells were plated into 96 well plates (Corning 3603) in their specific growth media and allowed to attach (8 hours). Media was then exchanged for the indicated conditions for each experiment. Cells were fixed in 3.7% formalin (Sigma-Aldrich), permeabilized in 0.25% Triton X-100 (Sigma-Aldrich) and then blocked with 1% BSA for 1 h. Cells or tissue sections were incubated overnight with mouse monoclonal antibody against αSMA (Sigma-Aldrich F3777), and/or a rabbit monoclonal antibody against YAP/TAZ (Cell Signaling D24E4) diluted 1:200 in PBS with 1% BSA. Cells were then washed and exposed to flourescence-conjugated secondary antibodies (Invitrogen) diluted 1:1000 and DAPI (Thermo Fisher Scientific). Images were taken with a Cytation5 (BioTek) microscope. For scoring αSMA positive cells (FIG. 3b), an observer blinded to the treatment conditions counted αSMA-positive cells using a visual threshold for bright fibrous staining; a minimum of 200 cells was counted for each condition. YAP/TAZ localization was quantified (FIG. 2, 6, 8) using Gen5 (Biotek) software. Images were taken at 4× magnification of both DAPI and YAP/TAZ staining. […] Quantification of double positive (YAP/TAZ and αSMA) cells from lung tissue sections (FIG. 4d) was performed similarly; however separate thresholds were established for both YAP/TAZ and αSMA. A minimum of 4000 cells was quantified for each mouse.

αSMA = αSMA intensity (fibroblast activation) in IPF patient-derived lung fibroblasts + TGFβ; assay type: cell-based, human; settings: Homo sapiens, SMA, 1 μM + TGFβ, treated for 72 hours
Protocol: as §1

human dermal fibroblasts = experiment: Profibrotic gene expression in human dermal fibroblasts +/- TGFβ; assay type: cell-based; settings: 24 hours +/− 2 ng/mL TGFβ
Protocol: Human dermal fibroblasts treated for 24 hours+/−2 ng/mL TGFβ and D1 agonists: DHX and A68930 prior to RNA isolation. N=2. For all other in vitro experiments, cells were treated as indicated prior to RNA isolation using RNeasy Plus Mini Kit (Qiagen) according to manufacturer's instructions. Isolated RNA (250 ng) was then used to synthesize cDNA using SuperScript VILO (Invitrogen). Quantitative PCR was performed using FastStart Essential DNA Green Master (Roche) and analyzed using a LightCycler 96 (Roche). Data are expressed as a fold change by ΔΔCt relative to GAPDH. For in vivo experiments, tissue was immediately frozen, and stored at −80° C. RNA isolation, cDNA synthesis, and qPCR analysis were performed as above.

cAMP = cAMP Assay (cAMP-Glo) in lung fibroblasts; assay type: cell-based, human; settings: IMR-90 lung fibroblasts (FIG. 31F-31H)
Protocol: cAMP Assay: IPF patient derived fibroblasts were plated in EMEM containing 10% FBS overnight. […] 20 minutes prior to cell lysis media was removed and cells were treated with “induction buffer” containing nonselective phosphodiesterase inhibitors and the indicated concentration of compound(s). Luminescence was measured on a Flexstation 3 (Molecular Devices) plate reader.

[1] = tested on: YAP/TAZ-TEAD interactions; settings: Ref. 19; cited from earlier work
αSMA+ stress fibers = experiment: TGFβ-induced αSMA+ stress fiber formation; assay type: cell-based, human; settings: TGFβ 48 hours, then dopamine 1 μM + TGFβ 24 hours
Protocol: ImmunofluorescenceMicroscopy: Cells were plated into 96 well plates (Corning 3603) in their specific growth media and allowed to attach (8 hours). Media was then exchanged for the indicated conditions for each experiment. Cells were fixed in 3.7% formalin (Sigma-Aldrich), permeabilized in 0.25% Triton X-100 (Sigma-Aldrich) and then blocked with 1% BSA for 1 h. Cells or tissue sections were incubated overnight with mouse monoclonal antibody against αSMA (Sigma-Aldrich F3777), and/or a rabbit monoclonal antibody against YAP/TAZ (Cell Signaling D24E4) diluted 1:200 in PBS with 1% BSA.

[2] = tested on: IPF patient derived fibroblasts; experiment: Traction Force Microscopy of IPF patient derived fibroblasts; assay type: cell-based, human; settings: IPF fibroblasts on 6.4 kPa matrices
Protocol: Traction Force Microscopy: Traction analysis was conducted as previously described. Briefly, polyacrylamide substrates with shear moduli of 6.4 kPa were prepared, and fluorescent sulfate-modified latex microspheres (0.2 μm, 505/515 ex/em) (FluoSpheres, Life Technologies) were conjugated to the gel surfaces after treatment with 1 mg ml^−1 of dopamine hydrochloride (Sigma-Aldrich) in 50 mM HEPES solution (pH 8.5). IPF patient derived fibroblasts were plated on the gels overnight and treated as indicated before traction force measurements. Images of gel surface-conjugated fluorescent beads were acquired for each cell before and after trypsinization using a Nikon ECLIPSE Ti microscope at ×10 magnification. Traction forces were estimated by measuring bead displacement fields and computing corresponding traction fields using TractionsForAll (freely distributed program that calculates 2-D tractions exerted by an adherent cell on its substrate).

[3] = patient sample IPF-1, read-out: αSMA intensity (% of DMSO control) IPF-1
[4] = patient sample IPF-2, read-out: αSMA intensity (% of DMSO control) IPF-2
[5] = patient sample IPF-3, read-out: αSMA intensity (% of DMSO control) IPF-3
[6] = patient sample IPF-4, read-out: αSMA intensity (% of DMSO control) IPF-4

Row | Molecule | activity at 1 µM (αSMA; [3]) [%] | activity at 1 µM (αSMA; [4]) [%] | activity at 1 µM (αSMA; [5]) [%] | activity at 1 µM (αSMA; [6]) [%] | antagonism of DHX's elevation of cAMP, inhibition of YAP/TAZ nuclear localization and of YAP/TAZ target genes (cAMP) | other results
1 | NCC1OC(c2ccccc2)Cc2c1ccc(O)c2O (stereo not shown) [A 68930•HCl] | 12.4 | 8.11 | 3.25 | 7.35 | – | Nuclear localization (% of total cells) IPF-1 (YAP/TAZ; patient sample IPF-1, 10 μM, treated 2 hours prior to fixation): 33.13 % of total cells; Nuclear localization (% of total cells) IPF-2 (YAP/TAZ; patient sample IPF-2, 10 μM, treated 2 hours prior to fixation): 30.59 % of total cells; Nuclear localization (% of total cells) IPF-3 (YAP/TAZ; patient sample IPF-3, 10 μM, treated 2 hours prior to fixation): 26.82 % of total cells; Nuclear localization (% of total cells) IPF-4 (YAP/TAZ; patient sample IPF-4, 10 μM, treated 2 hours prior to fixation): 10.26 % of total cells; profibrotic gene expression in human dermal fibroblasts (human dermal fibroblasts): blocks profibrotic gene expression
2 | CN1CCc2cc(Cl)c(O)cc2[C@H]2c3ccccc3CC[C@@H]21 [SCH-39166] | – | – | – | – | block DHX's elevation of cAMP | –
3 | CN1CCc2ccccc2Cc2[nH]c3ccccc3c2CC1 [LE-300] | – | – | – | – | block DHX's elevation of cAMP | –
4 | verteporfin | – | – | – | – | – | effects in models of liver fibrosis [1]: limited beneficial effects
5 | NCCc1ccc(O)c(O)c1 [Dopamine•HCl, Dopamine] | 35.2 | 8.09 | 26.6 | 5.37 | – | YAP/TAZ nuclear localization, low density IPF fibroblasts (YAP/TAZ; tissue culture plastic (FIG. 34A)): inhibits YAP/TAZ nuclear localization; αSMA+ stress fiber formation in IPF-patient derived fibroblasts (αSMA+ stress fibers): reverses αSMA+ stress fiber formation; contractile forces (traction force microscopy) [2]: attenuates IPF fibroblast contractility
